Laboratory results taken from patent US12059422B2 (MEI Pharma, Inc., priority 2011, dated 2024).

How the values were obtained:
[1] = target: T1, PI3K delta (Homo sapiens, UniProt O00329); experiment: Luciferase-based luminescence assay (KinaseGlo), PI3K delta enzymatic activity; assay type: biochemical; settings: for IC50: inhibition of enzymatic activity, KinaseGlo, 25 μM ATP, read-out: IC50 p110δ; for α/δ ratio: ratio of enzymatic IC50 against PI3Kα over IC50 against PI3Kδ; for β/δ ratio / γ/δ ratio: ratio of enzymatic IC50 values, Table 1
T1 construct: purchased Millipore, Billerica, MA, USA
T1 sequence (O00329 whole entry, species assumed): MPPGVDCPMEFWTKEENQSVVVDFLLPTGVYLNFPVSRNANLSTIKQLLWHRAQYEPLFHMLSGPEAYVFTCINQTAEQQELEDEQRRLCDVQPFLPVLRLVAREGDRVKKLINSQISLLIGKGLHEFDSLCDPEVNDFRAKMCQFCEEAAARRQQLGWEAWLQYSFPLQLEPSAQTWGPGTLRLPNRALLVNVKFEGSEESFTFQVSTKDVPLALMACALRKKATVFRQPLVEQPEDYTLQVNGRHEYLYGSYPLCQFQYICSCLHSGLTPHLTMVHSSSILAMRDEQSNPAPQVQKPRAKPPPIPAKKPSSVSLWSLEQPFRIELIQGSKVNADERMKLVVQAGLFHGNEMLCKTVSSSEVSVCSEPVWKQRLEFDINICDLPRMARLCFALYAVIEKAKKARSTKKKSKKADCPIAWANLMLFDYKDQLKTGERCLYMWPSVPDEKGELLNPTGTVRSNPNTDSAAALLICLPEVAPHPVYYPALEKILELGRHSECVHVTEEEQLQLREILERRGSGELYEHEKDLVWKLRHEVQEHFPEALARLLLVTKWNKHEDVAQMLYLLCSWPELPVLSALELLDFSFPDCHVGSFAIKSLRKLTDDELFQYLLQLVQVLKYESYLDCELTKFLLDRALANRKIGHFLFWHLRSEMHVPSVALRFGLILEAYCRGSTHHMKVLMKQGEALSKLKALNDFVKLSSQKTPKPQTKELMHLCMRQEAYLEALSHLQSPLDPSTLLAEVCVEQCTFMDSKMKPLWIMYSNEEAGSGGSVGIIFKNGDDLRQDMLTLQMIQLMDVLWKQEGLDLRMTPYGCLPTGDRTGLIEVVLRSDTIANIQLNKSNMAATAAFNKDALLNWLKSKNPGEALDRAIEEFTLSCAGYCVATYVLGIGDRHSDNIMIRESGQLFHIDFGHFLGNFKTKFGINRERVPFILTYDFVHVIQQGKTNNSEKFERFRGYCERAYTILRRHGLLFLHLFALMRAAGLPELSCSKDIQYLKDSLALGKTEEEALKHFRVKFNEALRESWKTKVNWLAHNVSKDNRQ
T1 sequence (P27986 whole entry partner, species assumed): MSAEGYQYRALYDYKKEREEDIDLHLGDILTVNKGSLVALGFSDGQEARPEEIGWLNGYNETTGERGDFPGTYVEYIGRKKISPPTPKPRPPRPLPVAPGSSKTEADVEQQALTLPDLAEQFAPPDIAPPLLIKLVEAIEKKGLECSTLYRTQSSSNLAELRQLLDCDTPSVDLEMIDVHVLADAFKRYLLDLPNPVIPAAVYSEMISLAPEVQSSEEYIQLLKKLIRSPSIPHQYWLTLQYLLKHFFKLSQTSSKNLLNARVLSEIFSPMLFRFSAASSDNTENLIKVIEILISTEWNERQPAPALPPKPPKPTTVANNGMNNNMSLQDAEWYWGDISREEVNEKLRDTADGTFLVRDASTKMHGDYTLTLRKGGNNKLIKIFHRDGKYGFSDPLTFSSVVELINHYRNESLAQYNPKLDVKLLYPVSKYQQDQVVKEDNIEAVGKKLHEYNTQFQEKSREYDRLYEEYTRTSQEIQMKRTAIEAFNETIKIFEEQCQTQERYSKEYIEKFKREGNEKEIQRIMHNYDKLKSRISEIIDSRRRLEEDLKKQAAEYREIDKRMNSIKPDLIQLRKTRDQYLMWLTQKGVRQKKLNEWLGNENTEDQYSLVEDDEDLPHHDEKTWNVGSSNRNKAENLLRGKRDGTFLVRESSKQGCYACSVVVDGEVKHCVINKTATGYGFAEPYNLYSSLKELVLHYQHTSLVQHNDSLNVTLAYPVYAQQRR
Method in brief: (§1)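 KinaseGlo luminescence measured ATP remaining after PIP2 (50 μM) phosphorylation with 25 μM ATP in HEPES pH 7.5 buffer with CHAPS and DTT. Final enzyme was 1.65 nM alpha (1 h reaction) or 6.86 nM delta (2 h reaction). IC50 was curve-fitted from 10 concentrations.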

[2] = target: T2, PI3K alpha (Homo sapiens, UniProt P42336); experiment: Luciferase-based luminescence assay (KinaseGlo), PI3K alpha enzymatic activity; assay type: biochemical; settings: inhibition of enzymatic activity, 25 μM ATP, read-out: IC50 p110α
T2 construct: purchased Invitrogen Corp., Carlsbad, CA, USA
T2 sequence (P42336 whole entry, species assumed): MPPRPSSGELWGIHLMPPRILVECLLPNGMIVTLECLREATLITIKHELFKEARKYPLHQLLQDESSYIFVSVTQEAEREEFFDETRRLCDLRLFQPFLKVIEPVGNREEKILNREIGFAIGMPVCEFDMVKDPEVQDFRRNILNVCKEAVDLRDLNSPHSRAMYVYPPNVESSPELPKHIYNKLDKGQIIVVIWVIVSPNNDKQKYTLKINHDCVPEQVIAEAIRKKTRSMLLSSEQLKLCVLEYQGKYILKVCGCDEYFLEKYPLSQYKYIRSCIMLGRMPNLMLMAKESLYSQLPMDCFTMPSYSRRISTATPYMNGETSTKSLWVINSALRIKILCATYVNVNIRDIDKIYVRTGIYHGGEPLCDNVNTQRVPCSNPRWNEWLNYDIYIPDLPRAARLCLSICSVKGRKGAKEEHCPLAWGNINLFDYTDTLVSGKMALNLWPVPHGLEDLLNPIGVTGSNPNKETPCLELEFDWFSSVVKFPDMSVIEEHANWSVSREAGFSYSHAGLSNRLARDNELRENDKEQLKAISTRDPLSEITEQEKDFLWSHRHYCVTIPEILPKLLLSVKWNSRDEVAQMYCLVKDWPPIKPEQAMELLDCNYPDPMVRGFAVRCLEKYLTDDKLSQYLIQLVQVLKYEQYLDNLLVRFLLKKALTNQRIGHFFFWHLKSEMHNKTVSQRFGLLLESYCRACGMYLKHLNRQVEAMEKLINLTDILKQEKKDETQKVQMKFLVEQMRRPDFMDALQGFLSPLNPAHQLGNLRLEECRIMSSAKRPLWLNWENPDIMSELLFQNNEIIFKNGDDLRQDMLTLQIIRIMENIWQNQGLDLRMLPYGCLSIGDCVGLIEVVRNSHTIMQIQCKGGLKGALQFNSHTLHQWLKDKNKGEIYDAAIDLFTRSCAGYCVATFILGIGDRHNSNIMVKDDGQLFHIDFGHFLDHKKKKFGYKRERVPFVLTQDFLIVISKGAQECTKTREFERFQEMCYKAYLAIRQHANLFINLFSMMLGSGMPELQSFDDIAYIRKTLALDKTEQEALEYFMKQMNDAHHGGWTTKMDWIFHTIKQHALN
T2 sequence (P27986 whole entry partner, species assumed): as the sequence (P27986 whole entry partner, species assumed) above
Method in brief: as §1

[3] = target: mTOR (Homo sapiens, UniProt P42345); experiment: mTOR inhibition (Table 1); assay type: biochemical; settings: Table 1, no method described
[4] = target: T3, PI3Kδ (Homo sapiens, UniProt O00329); experiment: ELISA assay for PI3Kδ: sandwich ELISA, phosphorylation of AKT (Thr308) in Raji cells; assay type: cell-based; settings: for IC50: cellular, pAKT (Thr308), Raji cells, anti-Human IgM stimulation, read-out: IC50 p110δ; for α/δ ratio / β/δ ratio / γ/δ ratio: ratio of cellular IC50 values, Table 2
T3 construct: endogenous in cells; host or cells: Raji (ATCC #CCL-86)
T3 sequence (O00329 whole entry): as the sequence (O00329 whole entry, species assumed) above
T3 sequence (P27986 whole entry partner): as the sequence (P27986 whole entry partner, species assumed) above
Method in brief: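 Raji cells, serum-starved 2 hrs, treated with compound (10 concentrations) for 2 hrs at 37° C, then stimulated 30 min with anti-human IgM. Lysates analysed by sandwich ELISA for pAKT Thr308 and total AKT with luminescent read-out. IC50 from curve fitting.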

## COc1cccc(CC(C)(C)Nc2nc(N3CCOCC3)nc(-n3c(C(F)F)nc4ccccc43)n2)c1 [Compound A21, 4-(2-(difluoromethyl)-1H-benzo[d]imidazol-1-yl)-N-(1-(3-methoxyphenyl)-2-methylpropan-2-yl)-6-morpholino-1,3,5-triazin-2-amine]
[1]
  IC50: ≤ 100 nM
  α/δ ratio: A’
  β/δ ratio: B’
  γ/δ ratio: A’
[2]
  IC50: > 500 nM
[3]
  IC50: > 500 nM
[4]
  IC50: ≤ 100 nM
  α/δ ratio: A’
  β/δ ratio: A’
  γ/δ ratio: A’

## CC(C)(Cc1ccc(F)cc1)Nc1nc(N2CCOCC2)nc(-n2c(C(F)F)nc3ccccc32)n1 [Compound A22, 4-(2-(difluoromethyl)-1H-benzo[d]imidazol-1-yl)-N-(1-(4-fluorophenyl)-2-methylpropan-2-yl)-6-morpholino-1,3,5-triazin-2-amine]
[1]
  IC50: ≤ 100 nM
  α/δ ratio: A’
  β/δ ratio: C’
  γ/δ ratio: A’
[2]
  IC50: > 500 nM
[3]
  IC50: > 500 nM
[4]
  IC50: ≤ 100 nM
  α/δ ratio: A’
  β/δ ratio: A’
  γ/δ ratio: A’

## CN1CCC(c2ccccc2CC(C)(C)Nc2nc(N3CCOCC3)nc(-n3c(C(F)F)nc4ccccc43)n2)CC1 [Compound A35, 4-(2-(difluoromethyl)-1H-benzo[d]imidazol-1-yl)-N-(2-methyl-1-(2-(1-methylpiperidin-4-yl)phenyl)propan-2-yl)-6-morpholino-1,3,5-triazin-2-amine]
[1]
  IC50: ≤ 100 nM
  α/δ ratio: A’
  β/δ ratio: A’
  γ/δ ratio: A’
[2]
  IC50: > 500 nM
[3]
  IC50: > 500 nM
[4]
  IC50: ≤ 100 nM
  α/δ ratio: A’
  β/δ ratio: A’
  γ/δ ratio: A’

## CC(C)(Cc1c(F)cccc1F)Nc1nc(N2CCOCC2)nc(-n2c(C(F)F)nc3ccccc32)n1 [Compound A52, 4-(2-(difluoromethyl)-1H-benzo[d]imidazol-1-yl)-N-(1-(2,6-difluorophenyl)-2-methylpropan-2-yl)-6-morpholino-1,3,5-triazin-2-amine]
[1]
  IC50: ≤ 100 nM
  α/δ ratio: C’
  β/δ ratio: B’
  γ/δ ratio: D’
[2]
  IC50: > 500 nM
[3]
  IC50: > 500 nM
[4]
  IC50: ≤ 100 nM
  α/δ ratio: A’
  β/δ ratio: D’
  γ/δ ratio: A’

## CC(C)N1CCC(c2ccccc2CC(C)(C)Nc2nc(N3CCOCC3)nc(-n3c(C(F)F)nc4ccccc43)n2)CC1 [Compound A71, 4-(2-(difluoromethyl)-1H-benzo[d]imidazol-1-yl)-N-(1-(2-(1-isopropylpiperidin-4-yl)phenyl)-2-methylpropan-2-yl)-6-morpholino-1,3,5-triazin-2-amine]
[1]
  IC50: ≤ 100 nM
  α/δ ratio: A’
  β/δ ratio: A’
  γ/δ ratio: A’
[2]
  IC50: > 500 nM
[3]
  IC50: > 500 nM
[4]
  IC50: ≤ 100 nM
  α/δ ratio: A’
  β/δ ratio: A’
  γ/δ ratio: A’

## CC(C)(Cc1ccccc1-c1cccc(CN2CCOCC2)c1)Nc1nc(N2CCOCC2)nc(-n2c(C(F)F)nc3ccccc32)n1 [Compound A65, 4-(2-(difluoromethyl)-1H-benzo[d]imidazol-1-yl)-N-(2-methyl-1-(3′-(morpholinomethyl)biphenyl-2-yl)propan-2-yl)-6-morpholino-1,3,5-triazin-2-amine]
[1]
  IC50: ≤ 100 nM
  α/δ ratio: A’
  β/δ ratio: D’
  γ/δ ratio: D’
[2]
  IC50: > 500 nM
[3]
  IC50: > 500 nM
[4]
  IC50: ≤ 100 nM
  α/δ ratio: A’
  β/δ ratio: B’
  γ/δ ratio: A’

## CN1CCN(c2cc(-c3ccccc3CC(C)(C)Nc3nc(N4CCOCC4)nc(-n4c(C(F)F)nc5ccccc54)n3)ccn2)CC1 [Compound A64, 4-(2-(difluoromethyl)-1H-benzo[d]imidazol-1-yl)-N-(2-methyl-1-(2-(2-(4-methylpiperazin-1-yl)pyridin-4-yl)phenyl)propan-2-yl)-6-morpholino-1,3,5-triazin-2-amine]
[1]
  IC50: ≤ 100 nM
  α/δ ratio: A’
  β/δ ratio: D’
  γ/δ ratio: A’
[2]
  IC50: > 500 nM
[3]
  IC50: > 500 nM
[4]
  IC50: ≤ 100 nM
  α/δ ratio: A’
  β/δ ratio: A’
  γ/δ ratio: A’

## CC(C)(Cc1cccc(F)c1)Nc1nc(N2CCOCC2)nc(-n2c(C(F)F)nc3ccccc32)n1 [Compound A39, 4-(2-(difluoromethyl)-1H-benzo[d]imidazol-1-yl)-N-(1-(3-fluorophenyl)-2-methylpropan-2-yl)-6-morpholino-1,3,5-triazin-2-amine]
[1]
  IC50: ≤ 100 nM
  α/δ ratio: A’
  β/δ ratio: D’
  γ/δ ratio: B’
[2]
  IC50: > 500 nM
[3]
  IC50: > 500 nM
[4]
  IC50: ≤ 100 nM
  α/δ ratio: A’
  γ/δ ratio: A’

## Cn1cc(-c2ccccc2CC(C)(C)Nc2nc(N3CCOCC3)nc(-n3c(C(F)F)nc4ccccc43)n2)cn1 [Compound A45, 4-(2-(difluoromethyl)-1H-benzo[d]imidazol-1-yl)-N-(2-methyl-1-(2-(1-methyl-1H-pyrazol-4-yl)phenyl)propan-2-yl)-6-morpholino-1,3,5-triazin-2-amine]
[1]
  IC50: ≤ 100 nM
  α/δ ratio: A’
  β/δ ratio: D’
  γ/δ ratio: A’
[2]
  IC50: 100 to 200 nM
[3]
  IC50: > 500 nM
[4]
  IC50: ≤ 100 nM
  α/δ ratio: A’
  β/δ ratio: B’
  γ/δ ratio: A’

## CC(C)(Cc1cccc2ccccc12)Nc1nc(N2CCOCC2)nc(-n2c(C(F)F)nc3ccccc32)n1 [Compound A27, 4-(2-(difluoromethyl)-1H-benzo[d]imidazol-1-yl)-N-(2-methyl-1-(naphthalen-1-yl)propan-2-yl)-6-morpholino-1,3,5-triazin-2-amine]
[1]
  IC50: ≤ 100 nM
  α/δ ratio: A’
  β/δ ratio: D’
  γ/δ ratio: D’
[2]
  IC50: > 500 nM
[3]
  IC50: > 500 nM
[4]
  IC50: ≤ 100 nM
  β/δ ratio: C’

## CC(C)(Cc1ccccc1C1CCNCC1)Nc1nc(N2CCOCC2)nc(-n2c(C(F)F)nc3ccccc32)n1 [Compound A68, 4-(2-(difluoromethyl)-1H-benzo[d]imidazol-1-yl)-N-(2-methyl-1-(2-(piperidin-4-yl)phenyl)propan-2-yl)-6-morpholino-1,3,5-triazin-2-amine]
[1]
  IC50: ≤ 100 nM
  α/δ ratio: A’
  β/δ ratio: A’
  γ/δ ratio: A’
[2]
  IC50: > 500 nM
[3]
  IC50: > 500 nM
[4]
  IC50: ≤ 100 nM
  α/δ ratio: A’
  β/δ ratio: A’
  γ/δ ratio: A’

## CC(C)(Cc1ccccc1)Nc1nc(N2CCOCC2)nc(-n2c(C(F)F)nc3ccccc32)n1 [Compound A14, 4-(2-(difluoromethyl)-1H-benzo[d]imidazol-1-yl)-N-(2-methyl-1-phenylpropan-2-yl)-6-morpholino-1,3,5-triazin-2-amine]
[1]
  IC50: ≤ 100 nM
  α/δ ratio: A’
  β/δ ratio: D’
  γ/δ ratio: A’
[2]
  IC50: > 500 nM
[3]
  IC50: > 500 nM
[4]
  IC50: ≤ 100 nM
  α/δ ratio: A’
  β/δ ratio: A’
  γ/δ ratio: A’

## CC(C)(Cc1ccccc1C1CCNC1)Nc1nc(N2CCOCC2)nc(-n2c(C(F)F)nc3ccccc32)n1 (stereo not shown) [Compound A74, 4-(2-(difluoromethyl)-1H-benzo[d]imidazol-1-yl)-N-(2-methyl-1-(2-(pyrrolidin-3-yl)phenyl)propan-2-yl)-6-morpholino-1,3,5-triazin-2-amine]
[1]
  IC50: ≤ 100 nM
  α/δ ratio: A’
  β/δ ratio: A’
  γ/δ ratio: A’
[2]
  IC50: > 500 nM
[3]
  IC50: > 500 nM
[4]
  IC50: ≤ 100 nM
  α/δ ratio: A’
  β/δ ratio: C’
  γ/δ ratio: A’

## CC(C)(Cc1ccc(F)cc1F)Nc1nc(N2CCOCC2)nc(-n2c(C(F)F)nc3ccccc32)n1 [Compound A51, 4-(2-(difluoromethyl)-1H-benzo[d]imidazol-1-yl)-N-(1-(2,4-difluorophenyl)-2-methylpropan-2-yl)-6-morpholino-1,3,5-triazin-2-amine]
[1]
  IC50: ≤ 100 nM
  α/δ ratio: A’
  β/δ ratio: B’
  γ/δ ratio: C’
[2]
  IC50: > 500 nM
[3]
  IC50: > 500 nM
[4]
  IC50: ≤ 100 nM
  α/δ ratio: A’
  β/δ ratio: D’
  γ/δ ratio: A’

## COc1ccccc1CC(C)(C)Nc1nc(N2CCOCC2)nc(-n2c(C(F)F)nc3ccccc32)n1 [Compound A19, 4-(2-(difluoromethyl)-1H-benzo[d]imidazol-1-yl)-N-(1-(2-methoxyphenyl)-2-methylpropan-2-yl)-6-morpholino-1,3,5-triazin-2-amine]
[1]
  IC50: ≤ 100 nM
  α/δ ratio: B’
  β/δ ratio: B’
  γ/δ ratio: B’
[2]
  IC50: > 500 nM
[3]
  IC50: > 500 nM
[4]
  IC50: ≤ 100 nM
  β/δ ratio: D’
